Earlier results in patent publication US20190380987A1, “COMPOSITION AND METHOD FOR TREATING MUCOLYTIC AND INFLAMMATORY AIRWAY CONDITIONS” (priority 2018, published 2019).

Assays:
[1] = tested on: CF patients; settings: 2700 mg of oral NAC per day in divided doses of 900 mg, controls declined

Question: For `CC(=O)N[C@@H](CS)C(=O)O` [N-acetylcysteine], which solubility in alcohol (alcohol) is on record?
Answer: soluble

Question: What about the solubility in chloroform (chloroform) of the same compound?
Answer: practically insoluble

Question: And the solubility in ether (ether)?
Answer: practically insoluble

Question: What about the solubility in water (water) of the same compound?
Answer: soluble

Question: And the lung function decline [1]?
Answer: did not experience lung function decline
